This note sets out measurements from ChEMBL document CHEMBL1201862, “PubChem BioAssay data set” (2004).

The structures appear in SMILES notation.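 Interpolation was linear, between the two tested concentrations surrounding the appropriate level; five concentrations were tested over 48 hours in 96-well plates. GI50 is the concentration that inhibits growth by half.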 Activity calls are given as the source filed them. Cut-off read from the data, not from the text of the source: active = GI50 up to about 1.1 µM and inactive = higher.

Among the test systems are HT-29; EKVX; MOLT-4; SK-OV-3; HCT-116; A498; NCI-H23; NCI-H460; OVCAR-5; TK-10; RPMI-8226; HCT-15; ACHN; IGROV-1; UACC-62; SF-295; OVCAR-3.
Test in all cases: NCI tumour cell line growth inhibition, 48 h

Consider `CC(C)=CCC/C(C)=C/CC/C(C)=C/CC/C=C(\C)CC/C=C(\C)CCC1SC1(C)C` (centres undefined), for which the GI50 with HT-29, in the experiment on EKVX, in the experiment with MOLT-4, in the experiment on SK-OV-3, with HCT-116 and with A498 was > 100 µM (inactive) throughout. For the same compound, the GI50 in the experiment with NCI-H23 is > 100 µM (inactive); in the experiment on NCI-H460, > 100 µM (inactive); in the experiment with OVCAR-5, > 100 µM (inactive); in the experiment with TK-10, > 100 µM (inactive); in the experiment on RPMI-8226, > 100 µM (inactive); in the experiment on HCT-15, over 100 µM. For the same compound, the GI50 in the experiment with ACHN, in the experiment with IGROV-1, in the experiment with UACC-62 and with SF-295 was > 100 µM (inactive) each time.
Regarding `CCSC1(SCC)CC(Cc2ccc(OC)cc2)N(/C=N/C(C)(C)C)C1` (centres undefined), the GI50 in the experiment with HT-29 was 10.7 µM (inactive); with OVCAR-3, 27.8 µM (inactive); with EKVX, 27 µM (inactive); in the experiment on MOLT-4, 14.7 µM (inactive); in the experiment with SK-OV-3, 22.8 µM (inactive); in the experiment with HCT-116, 20.9 µM (inactive). Besides, the GI50 in the experiment on A498 is 33.6 µM (inactive); in the experiment on NCI-H23 it was 18.7 µM (inactive); in the experiment on NCI-H460 it was 8.51 µM (inactive); in the experiment on OVCAR-5, 11.5 µM (inactive); with TK-10, 17.3 µM (inactive); in the experiment with HCT-15, 25.8 µM. Moreover, the GI50 with ACHN was 32.5 µM (inactive); in the experiment with IGROV-1, 37.8 µM (inactive); with UACC-62, 19.1 µM (inactive); with SF-295, 15.1 µM (inactive).
Regarding `Cn1c(=O)c(C(c2ccc([N+](=O)[O-])cc2)c2c(O)c3ccccc3n(C)c2=O)cc2ccccc21` (centres undefined), the GI50 in the experiment on HT-29 was 44.8 µM (inactive); in the experiment on OVCAR-3, 55.3 µM (inactive); in the experiment on EKVX it was 41.7 µM (inactive); in the experiment on MOLT-4, 41.7 µM (inactive); with SK-OV-3, 60.1 µM (inactive); with HCT-116, 44.2 µM (inactive). The GI50 in the experiment with NCI-H23 was 32.6 µM (inactive); in the experiment on NCI-H460 it was > 100 µM (inactive); in the experiment with OVCAR-5 it was 28.4 µM (inactive); with TK-10 it was 29.9 µM (inactive); in the experiment with RPMI-8226, 41.8 µM (inactive); in the experiment on HCT-15, 45.8 µM. Moreover, the GI50 in the experiment on ACHN is 57.8 µM (inactive); in the experiment with IGROV-1 it was 42.3 µM (inactive); with UACC-62, 19.2 µM (inactive); in the experiment with SF-295 it was 39.3 µM (inactive).
In the case of `CCCCCCCCCCCCCCCCOC(=O)C(C(=O)OCCCCCCCCCCCCCCCC)[N+](C)(C)CCOC(C)=O`, the GI50 with HT-29 was 11.1 µM (inactive); in the experiment with OVCAR-3 it was 16.7 µM (inactive); with EKVX, 21 µM (inactive); in the experiment on SK-OV-3 it was 17.8 µM (inactive); in the experiment on HCT-116, 16.4 µM (inactive); in the experiment on A498, 23.6 µM (inactive). Moreover, the GI50 in the experiment with NCI-H23 was 14.6 µM (inactive); in the experiment on NCI-H460, 28.1 µM (inactive); in the experiment with OVCAR-5, 20.8 µM (inactive); in the experiment with TK-10, 13 µM (inactive); in the experiment with HCT-15, 22.1 µM; in the experiment with ACHN, 19.2 µM (inactive). Moreover, the figures for the GI50 with IGROV-1, in the experiment with UACC-62 and in the experiment with SF-295 were 3.92 µM (inactive), 21.5 µM (inactive) and 18.1 µM (inactive), respectively.
For `O=C1OC(/C=C/c2ccccc2)C(=O)C1=O` (centres undefined), the GI50 in the experiment on HT-29, in the experiment with EKVX, with MOLT-4, with SK-OV-3, in the experiment on A498 and in the experiment with NCI-H23 was > 100 µM (inactive) each time. Further, the GI50 in the experiment with NCI-H460 is > 100 µM (inactive); in the experiment with OVCAR-5 it was > 100 µM (inactive); in the experiment on TK-10, > 100 µM (inactive); with RPMI-8226, > 100 µM (inactive); in the experiment with HCT-15, over 100 µM; with ACHN, > 100 µM (inactive). The GI50 in the experiment with IGROV-1, in the experiment on UACC-62 and in the experiment with SF-295 was > 100 µM (inactive) each time.
Consider `Cn1nc(-c2ccccc2)c2c(/C=C/c3ccc(F)cc3)onc2c1=O`, for which the GI50 was 29.3 µM (inactive) in the experiment on HT-29; > 100 µM (inactive) in the experiment with EKVX; > 100 µM (inactive) with MOLT-4; 50 µM (inactive) in the experiment with SK-OV-3; 9.59 µM (inactive) with HCT-116; 19 µM (inactive) in the experiment on NCI-H23. Besides, the GI50 with NCI-H460 was > 100 µM (inactive); in the experiment on TK-10 it was 90.6 µM (inactive); in the experiment on RPMI-8226 it was > 100 µM (inactive); in the experiment on HCT-15 it was 39.5 µM; with ACHN, 24.1 µM (inactive); with IGROV-1 it was > 100 µM (inactive). In the experiment with UACC-62, the GI50 was > 100 µM (inactive).
Turning to `CCn1cc(/C=C/C(C)c2cn(CC)c(=O)[nH]c2=O)c(=O)[nH]c1=O` (centres undefined), the GI50 in the experiment on HT-29, in the experiment with OVCAR-3, in the experiment on EKVX, in the experiment with MOLT-4, in the experiment with SK-OV-3 and in the experiment with NCI-H23 was > 100 µM (inactive) each time. Further, the GI50 in the experiment on NCI-H460 was > 100 µM (inactive); in the experiment on OVCAR-5 it was > 100 µM (inactive); with TK-10 it was > 100 µM (inactive); with RPMI-8226, > 100 µM (inactive); in the experiment on HCT-15, over 100 µM; with ACHN it was > 100 µM (inactive). Further, the GI50 with IGROV-1, with UACC-62 and with SF-295 was > 100 µM (inactive) throughout.
With `NC(=O)Nc1c([N+](=O)[O-])cc(C(F)(F)F)cc1[N+](=O)[O-]`, the GI50 was 33.7 µM (inactive) in the experiment on HT-29; 28.8 µM (inactive) with OVCAR-3; > 100 µM (inactive) with EKVX; > 100 µM (inactive) in the experiment on MOLT-4; 59.4 µM (inactive) in the experiment on HCT-116; > 100 µM (inactive) with A498. Further, the GI50 in the experiment on NCI-H23 is 43.8 µM (inactive); with NCI-H460 it was 48.1 µM (inactive); with OVCAR-5, > 100 µM (inactive); in the experiment with TK-10, > 100 µM (inactive); with RPMI-8226, > 100 µM (inactive); with HCT-15, 65.8 µM. Further, the GI50 in the experiment with ACHN was > 100 µM (inactive); in the experiment with IGROV-1 it was > 100 µM (inactive); in the experiment with UACC-62, 19.4 µM (inactive); in the experiment on SF-295, > 100 µM (inactive).
Take `COc1ccc(C2CCc3cc4c(cc3/C2=N/OC(C)=O)OCO4)cc1OC` (centres undefined): the GI50 is 36.2 µM (inactive) in the experiment on HT-29; 15.3 µM (inactive) with OVCAR-3; 29.2 µM (inactive) in the experiment on EKVX; 15.8 µM (inactive) in the experiment with MOLT-4; 28.8 µM (inactive) with SK-OV-3; 14.2 µM (inactive) in the experiment on HCT-116. Further, the GI50 is 10.4 µM (inactive) with NCI-H23; 32.9 µM (inactive) with OVCAR-5; 39 µM (inactive) in the experiment on TK-10; 12.6 µM (inactive) in the experiment with RPMI-8226; 30.3 µM in the experiment on HCT-15; 24.3 µM (inactive) with IGROV-1. Besides, the GI50 was 18.2 µM (inactive) in the experiment on UACC-62 and 23 µM (inactive) in the experiment on SF-295.
Consider `c1ccc(/N=C2\c3ccccc3C3=NCCCN32)cc1`, for which the GI50 was 31.1 µM (inactive) with HT-29; 75 µM (inactive) with OVCAR-3; 30.6 µM (inactive) with EKVX; 39.4 µM (inactive) with MOLT-4; 40.2 µM (inactive) in the experiment with HCT-116; 43.2 µM (inactive) in the experiment on A498. In addition, the GI50 in the experiment with NCI-H23 is 41.5 µM (inactive); in the experiment on NCI-H460, 55.1 µM (inactive); in the experiment on OVCAR-5, > 100 µM (inactive); with TK-10, 50 µM (inactive); with RPMI-8226 it was 30.5 µM (inactive); in the experiment with HCT-15, 35.6 µM. Further, the GI50 was 29.4 µM (inactive) with ACHN, 59.8 µM (inactive) with IGROV-1, 61.5 µM (inactive) in the experiment with UACC-62 and 92 µM (inactive) in the experiment on SF-295.
As for `CN(C)c1ccc(/C=c2\sc3nc4ccccc4n3c2=O)cc1`, the GI50 in the experiment with HT-29, in the experiment on OVCAR-3, in the experiment with EKVX, in the experiment on HCT-116, in the experiment with A498 and with NCI-H23 was > 100 µM (inactive) in each case. For the same compound, the GI50 with NCI-H460 is > 100 µM (inactive); with OVCAR-5, > 100 µM (inactive); in the experiment with TK-10, > 100 µM (inactive); in the experiment on HCT-15, over 100 µM; in the experiment with ACHN it was > 100 µM (inactive); in the experiment with IGROV-1, > 100 µM (inactive). The GI50 in the experiment on UACC-62 and in the experiment on SF-295 was > 100 µM (inactive) in each case.
In the case of `C/C=C1/C=CC2c3[nH]c4ccccc4c3CCN2C1` (centres undefined), the GI50 with HT-29 is > 400 µM (inactive); in the experiment with OVCAR-3, 116 µM (inactive); with EKVX, > 400 µM (inactive); with MOLT-4 it was > 400 µM (inactive); in the experiment on SK-OV-3 it was > 400 µM (inactive); with HCT-116, 223 µM (inactive). In addition, the GI50 in the experiment with NCI-H23 was > 400 µM (inactive); in the experiment on NCI-H460, > 400 µM (inactive); with TK-10 it was > 400 µM (inactive); with RPMI-8226, > 400 µM (inactive); with HCT-15, over 400 µM; in the experiment with ACHN it was > 400 µM (inactive). For the same compound, the GI50 with IGROV-1 was > 400 µM (inactive); in the experiment with UACC-62 it was > 400 µM (inactive); in the experiment with SF-295, 315 µM (inactive).
In the case of `O=C(NCCOCCO)c1ccc(O)cc1`, the GI50 with EKVX is 20.4 µM (inactive); in the experiment with MOLT-4, > 100 µM (inactive); in the experiment on SK-OV-3, > 100 µM (inactive); in the experiment on HCT-116, > 100 µM (inactive); in the experiment with A498, > 100 µM (inactive); in the experiment on NCI-H23, > 100 µM (inactive). Besides, the GI50 is > 100 µM (inactive) in the experiment with NCI-H460; > 100 µM (inactive) with TK-10; > 100 µM (inactive) in the experiment with RPMI-8226; over 100 µM with HCT-15; > 100 µM (inactive) in the experiment on ACHN; > 100 µM (inactive) in the experiment with IGROV-1. Besides, the GI50 with UACC-62 was > 100 µM (inactive).
